Experiments:
Type in all cases: cell-based
Parameters in all cases: expressed in transfected cells; host or cells: HEK293 cells transfected with VIPR2 in pCDNA3.1 (as described)
VIPR2 [1] = target: T1, VIPR2 (Homo sapiens, UniProt P41587); assay: Inhibition of VIP-induced β-arrestin recruitment (% Activity Arrestin)
T1 sequence (P41587 24-438): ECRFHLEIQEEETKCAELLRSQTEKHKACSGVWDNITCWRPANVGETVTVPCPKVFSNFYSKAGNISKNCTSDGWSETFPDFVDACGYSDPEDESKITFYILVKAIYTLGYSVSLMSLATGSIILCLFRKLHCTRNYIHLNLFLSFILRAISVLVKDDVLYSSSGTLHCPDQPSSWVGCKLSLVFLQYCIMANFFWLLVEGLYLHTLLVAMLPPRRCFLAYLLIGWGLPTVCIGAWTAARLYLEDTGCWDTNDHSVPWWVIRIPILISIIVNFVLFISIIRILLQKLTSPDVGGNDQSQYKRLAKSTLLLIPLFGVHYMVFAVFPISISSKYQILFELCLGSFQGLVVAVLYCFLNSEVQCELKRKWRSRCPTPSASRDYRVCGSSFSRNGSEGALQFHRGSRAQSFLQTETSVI
Excerpt: (§1) In a further non-limiting embodiment of the invention, the ability of a compound to inhibit VIPR2 GPCR activity may be tested, for example, using the PathHunter® eXpress β-Arrestin GPCR system (Discoverx Corporation, Fremont, Calif., US), as used by Chu et al., 2010, Molecular Pharmacol. 7795-101. In this assay, β-Arrestin is fused to the “Enzyme Acceptor” (“EA”), an N-terminal deletion mutant of β-gal, and the GPCR of interest is fused to a smaller (42 amino acids), weakly complementing portion of the β-gal enzyme (termed “ProLink™”). In cells that stably express these fusion proteins, the interaction of β-Arrestin and the GPCR following ligand stimulation forces the complementation of the two β-gal fragments resulting in the formation of a functional enzyme that converts substrate to detectable signal. In the absence of an interaction between the GPCR and β-Arrestin, the enzyme activity is low due to the low affinity of the two enzyme fragments. For example, a nucleic acid encoding VIPR2, for example hVIPR2, may be cloned into the ProLink vector (DiscoveRx) for GPCR-ProLink fusion protein production. Parental HEK293 cells that stably express β-arrestin2-β-gal-EA fusion protein (DiscoveRx) may be detached and transiently transfected with the VIPR2-containing vector using Fugene6 transfection reagent in suspension mode. Transfected cells in assay medium may be plated into test plates, for example at 15,000 cells/25 μl/well. After overnight incubation, 500 nl of an inhibitor or test inhibitor may be introduced into the test plate followed by 2 h incubation at 37° C., 5% CO2. Flash detection reagents may be added at 12.5 μl/well. After 5 min to 1 h of room-temperature incubation, the cell plates may be read on CLIPR (PerkinElmer Life and Analytical Sciences)or Acquest (Molecular Devices, Sunnyvale, Calif.) for luminescence signal.
(§2) A series of compounds were prepared using a synthetic method analogous to that set forth in Scheme 1, above, and then tested for their ability to inhibit VIP-induced cAMP elevation and β-arrestin recruitment.
(§3) A series of compounds were prepared using a synthetic method analogous to that set forth in Scheme 1, above, and then tested for their ability to inhibit VIP-induced cAMP elevation and β-arrestin recruitment, as described herein (Discoverx Corporation, Fremont, Calif., US). Compound activities were also tested in a BRET-based assay, as described herein. The results are shown below in Tables 1-4, above.

VIPR2 [2] = target: T1, VIPR2; assay: Inhibition of VIP-induced cAMP elevation (% Activity cAMP)
Excerpt: (§4) In a further non-limiting embodiment of the invention, the ability of a compound to inhibit VIPR2 and thereby […] a VIP-induced increase in cAMP may be measured using a Homogeneous Time-Resolved Fluorescence (“HTRF® assay; Cisbio Bioassays) as used in Chu et al., 2010, Molecular Pharmacol. 7795-101. In a method as used in Chu et al., 2010, Molecular Pharmacol. 7795-101, HEK293 cells may be transfected with nucleic acid encoding VIPR2, for example human VIPR2 (“hVIPR2”), for example comprised in a vector such as pCDNA3.1 vector. Successful transformants may then be selected, for example using 800 μg/ml G418. Clonal stable cell lines may then be generated by limited dilution to single cells and then may be clonally expanded and tested for VIP -dependent cAMP response. For the cAMP assay, about 3000-15,000 cells (in about 4-25 μl) may be placed in a well of an assay plate. The next day, inhibitor or test inhibitor and VIP may be added in a volume about 1-2 percent of the initial volume. Assay plates may then be returned to a cell incubator for 30 min before addition of a one-half volume of cAMP conjugate and, relative to the amount of cAMP conjugate, an equal volume of anti-cAMP conjugate (Cisbio). After at least 1 h of room-temperature incubation, HTRF signal may be read, for example using Viewlux or EnVision (PerkinElmer Life and Analytical Sciences, Waltham, Mass.). The ratio of […] at 665 nm and 620 nm times 10,000 may be calculated and plotted.
as §2, §3

VIPR2 [3] = target: T1, VIPR2; assay: % Activity: inhibition of VIP-induced cAMP elevation and β-arrestin recruitment (Table 2)
Excerpt: as §4, §1, §3

inhibition at 0.5 µM (VIPR2 [1]; Batch 3) | inhibition at 1 µM (VIPR2 [1]; Batch 3) | inhibition at 5 µM (VIPR2 [1]; Batch 3) | inhibition at 0.5 µM (VIPR2 [2]; Batch 3) | inhibition at 1 µM (VIPR2 [2]; Batch 3) | inhibition at 5 µM (VIPR2 [2]; Batch 3) | % Activity (VIPR2 [3]) | inhibition at 0.5 µM (VIPR2 [1]; Batch 1) | inhibition at 1 µM (VIPR2 [1]; Batch 1) | inhibition at 5 µM (VIPR2 [1]; Batch 1) | inhibition at 0.5 µM (VIPR2 [2]; Batch 1) | inhibition at 1 µM (VIPR2 [2]; Batch 1) | inhibition at 5 µM (VIPR2 [2]; Batch 1) | inhibition at 0.5 µM (VIPR2 [1]; Batch 2) | inhibition at 1 µM (VIPR2 [1]; Batch 2) | inhibition at 5 µM (VIPR2 [1]; Batch 2) | inhibition at 0.5 µM (VIPR2 [2]; Batch 2) | inhibition at 1 µM (VIPR2 [2]; Batch 2) | inhibition at 5 µM (VIPR2 [2]; Batch 2) | SMILES
0.3% | 3.1% | -1.2% | 2.5% | 5.9% | 31.8% | 15.3% |  |  |  |  |  |  |  |  |  |  |  |  | CCN(CC)C(=O)c1ccc(S(=O)(=O)NC[C@@H](O)C[C@@H](Cc2ccccc2)C(=O)N[C@H]2c3ccccc3C[C@H]2O)cc1 [Compound X096]
 |  |  |  |  |  | 27.55% | 2.8% | 20.3% | 31.8% | 14.1% | 10.9% | 23.3% |  |  |  |  |  |  | Cc1ccc(S(=O)(=O)NC[C@@H](O)C[C@@H](Cc2ccccc2)C(=O)N[C@H]2c3ccccc3C[C@H]2O)c(C)c1 [N]
-0.4% | 2.9% | -5.5% | -0.4% | 5.9% | 20.6% | 7.55% |  |  |  |  |  |  |  |  |  |  |  |  | CCCCNC(=O)c1ccc(S(=O)(=O)NC[C@@H](O)C[C@@H](Cc2ccccc2)C(=O)N[C@H]2c3ccccc3C[C@H]2O)cc1 [Compound X100]
 |  |  |  |  |  | 13.65% | 29.6% | 37.2% | 18% | 15.6% | 20% | 9.3% |  |  |  |  |  |  | COc1cc(C(=O)NC[C@@H](O)C[C@@H](Cc2ccccc2)C(=O)N[C@H]2c3ccccc3C[C@H]2O)cc(OC)c1OC [H]
 |  |  |  |  |  | 22.85% | 10.7% | 24.8% | 21% | 23% | 18.8% | 24.7% |  |  |  |  |  |  | O=C(N[C@H]1c2ccccc2C[C@H]1O)[C@H](Cc1ccccc1)C[C@H](O)CNS(=O)(=O)c1ccccc1C(F)(F)F [R]

The remaining lines, values behind:

SMILES | inhibition at 0.5 µM (VIPR2 [1]; Batch 3) | inhibition at 1 µM (VIPR2 [1]; Batch 3) | inhibition at 5 µM (VIPR2 [1]; Batch 3) | inhibition at 0.5 µM (VIPR2 [2]; Batch 3) | inhibition at 1 µM (VIPR2 [2]; Batch 3) | inhibition at 5 µM (VIPR2 [2]; Batch 3) | % Activity (VIPR2 [3]) | inhibition at 0.5 µM (VIPR2 [1]; Batch 1) | inhibition at 1 µM (VIPR2 [1]; Batch 1) | inhibition at 5 µM (VIPR2 [1]; Batch 1) | inhibition at 0.5 µM (VIPR2 [2]; Batch 1) | inhibition at 1 µM (VIPR2 [2]; Batch 1) | inhibition at 5 µM (VIPR2 [2]; Batch 1) | inhibition at 0.5 µM (VIPR2 [1]; Batch 2) | inhibition at 1 µM (VIPR2 [1]; Batch 2) | inhibition at 5 µM (VIPR2 [1]; Batch 2) | inhibition at 0.5 µM (VIPR2 [2]; Batch 2) | inhibition at 1 µM (VIPR2 [2]; Batch 2) | inhibition at 5 µM (VIPR2 [2]; Batch 2)
CS(=O)(=O)NC[C@@H](O)C[C@@H](Cc1ccccc1)C(=O)N[C@H]1c2ccccc2C[C@H]1O [Compound A5] |  |  |  |  |  |  | 20.95% | 17.3% | 31.6% | 23.4% | 21.4% | 21.9% | 18.5% |  |  |  |  |  | 
O=C(NC[C@@H](O)C[C@@H](Cc1ccccc1)C(=O)N[C@H]1c2ccccc2C[C@H]1O)C(Cl)Cl [Compound A6] |  |  |  |  |  |  | 19.8% | 9.5% | 17.4% | 20% | 18.4% | 18.3% | 19.6% |  |  |  |  |  | 
CC(=O)Nc1ccc(S(=O)(=O)NC[C@H](C[C@@H](Cc2ccccc2)C(=O)N[C@H]2c3ccccc3C[C@H]2OC(C)=O)OC(C)=O)cc1 [Compound X090] | 0.5% | 0.2% | 9.7% | -8.7% | -8.7% | -5.8% | 1.95% |  |  |  |  |  |  |  |  |  |  |  | 
O=C(NC1CCCCCC1)[C@H](Cc1ccccc1)C[C@H](O)CNS(=O)(=O)c1ccc([N+](=O)[O-])cc1 [Compound B5A] |  |  |  |  |  |  | 5.25% |  |  |  |  |  |  | -19.2% | -5.4% | -2.4% | 1.7% | 5.6% | 12.9%
Cc1cc(S(=O)(=O)NC[C@@H](O)C[C@@H](Cc2ccccc2)C(=O)N[C@H]2c3ccccc3C[C@H]2O)c(C)cc1Cl [Compound A3] |  |  |  |  |  |  | 20.85% | 17.6% | 30.2% | 0.6% | 20.6% | 21.6% | 41.1% |  |  |  |  |  | 
O=C(O)c1ccc(S(=O)(=O)NC[C@@H](O)C[C@@H](Cc2ccccc2)C(=O)N[C@H]2c3ccccc3C[C@H]2O)cc1 [Compound X094] | 6.4% | -1.8% | 0.2% | 7.4% | 6.4% | 26% | 13.1% |  |  |  |  |  |  |  |  |  |  |  | 
CCCCNC(=O)[C@@H](Cc1ccccc1)C[C@H](O)CNS(=O)(=O)c1ccc([N+](=O)[O-])cc1 [Compound B7B] |  |  |  |  |  |  | 13.45% |  |  |  |  |  |  | 26.8% | 20.4% | 20.7% | -1.5% | 0.6% | 6.2%
CC1CCC(NC(=O)[C@@H](Cc2ccccc2)C[C@H](O)CNS(=O)(=O)c2ccc([N+](=O)[O-])cc2)CC1 (some centres unmarked) [Compound B8B] |  |  |  |  |  |  | 2.15% |  |  |  |  |  |  | 5.7% | -0.4% | -0.8% | -0.7% | 9.5% | 5.1%
O=C(CCCCBr)NC[C@@H](O)C[C@@H](Cc1ccccc1)C(=O)N[C@H]1c2ccccc2C[C@H]1O [Compound A15] |  |  |  |  |  |  | −0.6% | 1.7% | -28.8% | -10.6% | 11.7% | 12.9% | 9.4% |  |  |  |  |  | 
CC(C)(C)c1ccc(S(=O)(=O)NC[C@@H](O)C[C@@H](Cc2ccccc2)C(=O)N[C@H]2c3ccccc3C[C@H]2O)cc1 [A, reference compound] |  |  |  |  |  |  |  | 0% | 18.1% | 56.7% | 9.7% | 13% | 72.1% |  |  |  |  |  | 
O=C(N[C@H]1c2ccccc2C[C@H]1O)[C@H](Cc1ccccc1)C[C@H](O)CNS(=O)(=O)c1ccc([N+](=O)[O-])cc1 [Compound A27, reference compound] | 2.6% | -2.6% | 29.3% | 74.3% | 86.1% | 97.8% |  | 37.7% | 74.6% | 88.7% | 42.6% | 71.3% | 99.1% | 15.6% | 38.6% | 92% | 38.7% | 70.9% | 100%
